From US10788497B2, “Method for detecting oxidising species” (ECOLE POLYTECHNIQUE, priority 2015, dated 2020)

System: EGFR (Epidermal Growth Factor Receptor)
Assay: Hydrogen peroxide production in vascular smooth muscle cells after endothelin-1 stimulation, with or without EGFR inhibition, measured with YAG:Ce and reduced GdVO4:Eu nanoparticles
Type: cell-based
Details: mouse vascular smooth muscle cells; 270 nM endothelin-1; AG1478 applied 30 min before stimulation and added to the observation medium
Procedure: Firstly, mammalian cells were prepared. For this purpose, mouse vascular smooth muscle cells (primary culture) were cultured in RPMI (“Roswell Park Memorial Institute” medium) containing 10% of fetal calf serum and antibiotics, in the present case penicillin and streptomycin. When confluence reaches 80%, the cells are taken and deposited on glass slides. In this particular case, 1.5×10^4 cells are typically arranged on a glass slide. The cells are then cultured on the slides for forty-eight hours in the complete culture medium, and then in a medium without serum for twenty-four hours.
In addition, a stable colloidal solution of […] with a concentration roughly equal to 1 mM is prepared. […]
Then a slide with cells loaded with nanoparticles is placed on a sample holder and 1 mL of buffered physiological medium (HBSS/1 mM HEPES) is added. […] After fifty seconds of observation, the initial medium is replaced with physiological medium containing 270 nM of endothelin-1 (ET-1) and the luminescence of individual nanoparticles is observed for several minutes on a full-field sensor (EM-CCD ImageEM camera, Hamamatsu). […]
Next, the variations in intensity of the particles observed (doped with Ce or Eu) over time are determined using image analysis or calculation software (for example Matlab). Each curve obtained is normalized, taking the first values measured for reference. […]

Compound: COc1cc2ncnc(Nc3cccc(Cl)c3)c2cc1OC [AG1478]
- contribution of the EGFR pathway to hydrogen peroxide production (inhibited cells produce half as much hydrogen peroxide as the normal cells): 50%
